In brackets after ≈: the same amount, converted by molar mass.
Experiments:
M14 = assay: Antitumor activity against human M14 cells assessed as cell growth at 0.1 uM; assay type: functional; conditions: read-out: Activity
SF-268 = assay: Antitumor activity against human SF268 cells assessed as cell growth at 0.1 uM; assay type: functional; conditions: read-out: Activity
UACC-257 = assay: Antitumor activity against human UACC257 cells assessed as cell growth at 0.1 uM; assay type: functional; conditions: read-out: Activity
Escherichia coli = assay: Antimicrobial activity against Escherichia coli MTCC 443 assessed as growth inhibition measured after overnight incubation by broth dilution method; assay type: functional
MDA-MB-435 = assay: Antitumor activity against human MDA-MB-435 cells assessed as cell growth at 0.1 uM; assay type: functional; conditions: read-out: Activity
CCRF-CEM = assay: Antitumor activity against human CCRF-CEM cells assessed as cell growth at 0.1 uM; assay type: functional; conditions: read-out: Activity
MDA-MB-231 = assay: Antitumor activity against human MDA-MB-231/ATCC cells assessed as cell growth at 0.1 uM; assay type: functional; conditions: read-out: Activity
NCI-H23 = assay: Antitumor activity against human NCI-H23 cells assessed as cell growth at 0.1 uM; assay type: functional; conditions: read-out: Activity
SK-MEL-2 = assay: cells; conditions: Homo sapiens, SK-MEL-2, read-out: Activity
Description: Antitumor activity against human SK-MEL-2 cells assessed as cell growth at 0.1 uM

ACHN = assay: Antitumor activity against human ACHN cells assessed as cell growth at 0.1 uM; assay type: functional; conditions: read-out: Activity
OVCAR-4 = assay: Antitumor activity against human OVCAR4 cells assessed as cell growth at 0.1 uM; assay type: functional; conditions: read-out: Activity
SK-MEL-5 = assay: Antitumor activity against human SK-MEL-5 cells assessed as cell growth at 0.1 uM; assay type: functional; conditions: read-out: Activity
Streptococcus pyogenes = assay: Antimicrobial activity against Streptococcus pyogenes MTCC 442 assessed as growth inhibition measured after overnight incubation by broth dilution method; assay type: functional
DU-145 = assay: Antitumor activity against human DU145 cells assessed as cell growth at 0.1 uM; assay type: functional; conditions: read-out: Activity
IGROV-1 = assay: Antitumor activity against human IGROV1 cells assessed as cell growth at 0.1 uM; assay type: functional; conditions: read-out: Activity
NCI-H522 = assay: Antitumor activity against human NCI-H522 cells assessed as cell growth at 0.1 uM; assay type: functional; conditions: read-out: Activity
[1] = Antitumor activity against human HCC2998 cells assessed as cell growth at 0.1 uM; assay type: functional; conditions: HCC 2998, read-out: Activity
NCI-H460 = assay: Antitumor activity against human NCI-H460 cells assessed as cell growth at 0.1 uM; assay type: functional; conditions: read-out: Activity
BT-549 = assay: Antitumor activity against human BT549 cells assessed as cell growth at 0.1 uM; assay type: functional; conditions: read-out: Activity
UACC-62 = assay: Antitumor activity against human UACC62 cells assessed as cell growth at 0.1 uM; assay type: functional; conditions: read-out: Activity
A549 = assay: Antitumor activity against human A549/ATCC cells assessed as cell growth at 0.1 uM; assay type: functional; conditions: read-out: Activity
UO-31 = assay: Antitumor activity against human UO31 cells assessed as cell growth at 0.1 uM; assay type: functional; conditions: read-out: Activity
SN12C = assay: Antitumor activity against human SN12C cells assessed as cell growth at 0.1 uM; assay type: functional; conditions: read-out: Activity
NCI-H226 = assay: Antitumor activity against human NCI-H226 cells assessed as cell growth at 0.1 uM; assay type: functional; conditions: read-out: Activity
SNB-75 = assay: Antitumor activity against human SNB75 cells assessed as cell growth at 0.1 uM; assay type: functional; conditions: read-out: Activity
SW-620 = assay: Antitumor activity against human SW620 cells assessed as cell growth at 0.1 uM; assay type: functional; conditions: read-out: Activity
SNB-19 = assay: Antitumor activity against human SNB19 cells assessed as cell growth at 0.1 uM; assay type: functional; conditions: read-out: Activity
MOLT-4 = assay: Antitumor activity against human MOLT4 cells assessed as cell growth at 0.1 uM; assay type: functional; conditions: read-out: Activity
KM12 = assay: Antitumor activity against human KM12 cells assessed as cell growth at 0.1 uM; assay type: functional; conditions: read-out: Activity
HL-60 = assay: Antitumor activity against human HL60(TB) cells assessed as cell growth at 0.1 uM; assay type: functional; conditions: read-out: Activity
NCI/ADR-RES = assay: Antitumor activity against human NCI/ADR-RES cells assessed as cell growth at 0.1 uM; assay type: functional; conditions: read-out: Activity
SR = assay: Antitumor activity against human SR cells assessed as cell growth at 0.1 uM; assay type: functional; conditions: read-out: Activity
CAKI-1 = assay: Antitumor activity against human CAKI-1 cells assessed as cell growth at 0.1 uM; assay type: functional; conditions: read-out: Activity
SK-MEL-28 = assay: Antitumor activity against human SK-MEL-28 cells assessed as cell growth at 0.1 uM; assay type: functional; conditions: read-out: Activity
Aspergillus niger = assay: Antimicrobial activity against Aspergillus niger MTCC 282 assessed as growth inhibition measured after overnight incubation by broth dilution method; assay type: functional
HT-29 = assay: Antitumor activity against human HT-29 cells assessed as cell growth at 0.1 uM; assay type: functional; conditions: read-out: Activity
[2] = Antitumor activity against human EKVX cells assessed as cell growth at 0.1 uM; assay type: functional; conditions: read-out: Activity
T47D = assay: Antitumor activity against human T47D cells assessed as cell growth at 0.1 uM; assay type: functional; conditions: read-out: Activity
Aspergillus clavatus = assay: Antimicrobial activity against Aspergillus clavatus MTCC 1323 assessed as growth inhibition measured after overnight incubation by broth dilution method; assay type: functional
Pseudomonas aeruginosa = assay: Antimicrobial activity against Pseudomonas aeruginosa MTCC 2488 assessed as growth inhibition measured after overnight incubation by broth dilution method; assay type: functional
HCT-116 = assay: Antitumor activity against human HCT116 cells assessed as cell growth at 0.1 uM; assay type: functional; conditions: read-out: Activity
K562 = assay: Antitumor activity against human K562 cells assessed as cell growth at 0.1 uM; assay type: functional; conditions: read-out: Activity
RXF 393 = assay: Antitumor activity against human RXF393 cells assessed as cell growth at 0.1 uM; assay type: functional; conditions: read-out: Activity
SF-539 = assay: Antitumor activity against human SF539 cells assessed as cell growth at 0.1 uM; assay type: functional; conditions: read-out: Activity
SF-295 = assay: Antitumor activity against human SF295 cells assessed as cell growth at 0.1 uM; assay type: functional; conditions: read-out: Activity
SK-OV-3 = assay: Antitumor activity against human SKOV3 cells assessed as cell growth at 0.1 uM; assay type: functional; conditions: read-out: Activity
OVCAR-8 = assay: Antitumor activity against human OVCAR8 cells assessed as cell growth at 0.1 uM; assay type: functional; conditions: read-out: Activity
OVCAR-5 = assay: Antitumor activity against human OVCAR5 cells assessed as cell growth at 0.1 uM; assay type: functional; conditions: read-out: Activity
RPMI-8226 = assay: Antitumor activity against human RPMI8226 cells assessed as cell growth at 0.1 uM; assay type: functional; conditions: read-out: Activity
TK-10 = assay: Antitumor activity against human TK10 cells assessed as cell growth at 0.1 uM; assay type: functional; conditions: read-out: Activity
U-251 = assay: Antitumor activity against human U251 cells assessed as cell growth at 0.1 uM; assay type: functional; conditions: read-out: Activity
Staphylococcus aureus = assay: Antimicrobial activity against Staphylococcus aureus MTCC 96 assessed as growth inhibition measured after overnight incubation by broth dilution method; assay type: functional
Malme-3M = assay: Antitumor activity against human MALME-3M cells assessed as cell growth at 0.1 uM; assay type: functional; conditions: read-out: Activity
MDA-MB-468 = assay: Antitumor activity against human MDA-MB-468 cells assessed as cell growth at 0.1 uM; assay type: functional; conditions: read-out: Activity
Candida albicans = assay: Antimicrobial activity against Candida albicans MTCC 227 assessed as growth inhibition measured after overnight incubation by broth dilution method; assay type: functional
HCT-15 = assay: Antitumor activity against human HCT15 cells assessed as cell growth at 0.1 uM; assay type: functional; conditions: read-out: Activity
PC-3 = assay: Antitumor activity against human PC3 cells assessed as cell growth at 0.1 uM; assay type: functional; conditions: read-out: Activity
[3] = Antitumor activity against human Hs 578T cells assessed as cell growth at 0.1 uM; assay type: functional; conditions: read-out: Activity
[4] = system: Mycobacterium tuberculosis; assay: Antitubercular activity against Mycobacterium tuberculosis H37Rv assessed as growth inhibition after 12 to 28 days by L.J. agar MIC method; assay type: functional
OVCAR-3 = assay: Antitumor activity against human OVCAR3 cells assessed as cell growth at 0.1 uM; assay type: functional; conditions: read-out: Activity
MCF7 = assay: Antitumor activity against human MCF7 cells assessed as cell growth at 0.1 uM; assay type: functional; conditions: read-out: Activity
LOX IMVI = assay: Antitumor activity against human LOXIMVI cells assessed as cell growth at 0.1 uM; assay type: functional; conditions: read-out: Activity
A498 = assay: Antitumor activity against human A498 cells assessed as cell growth at 0.1 uM; assay type: functional; conditions: read-out: Activity
HOP-62 = assay: Antitumor activity against human HOP62 cells assessed as cell growth at 0.1 uM; assay type: functional; conditions: read-out: Activity

Q: Which results are given for `Cc1cnc(NC(=O)CSc2nnc(-c3cccnc3SCc3ccccc3)o2)s1`?
A: growth at 0.1 µM (M14): 84.1%; growth at 0.1 µM (SF-268): 59.1%; growth at 0.1 µM (UACC-257): 94.9%; MIC (Escherichia coli): 200 µg/mL (≈ 439 µM); growth at 0.1 µM (MDA-MB-435): 96.5%; growth at 0.1 µM (CCRF-CEM): 37.8%; growth at 0.1 µM (MDA-MB-231): 11%; growth at 0.1 µM (NCI-H23): 80.6%; growth at 0.1 µM (SK-MEL-2): 94%; growth at 0.1 µM (ACHN): 66.5%; growth at 0.1 µM (OVCAR-4): 67%; growth at 0.1 µM (SK-MEL-5): 78%; MIC (Streptococcus pyogenes): 62.5 µg/mL (≈ 137 µM); growth at 0.1 µM (DU-145): 58%; growth at 0.1 µM (IGROV-1): 58.5%; growth at 0.1 µM (NCI-H522): 18.5%; growth at 0.1 µM [1]: 89.5%; growth at 0.1 µM (NCI-H460): 81.1%; growth at 0.1 µM (BT-549): 75.7%; growth at 0.1 µM (UACC-62): 71.7%; growth at 0.1 µM (A549): 51%; growth at 0.1 µM (UO-31): 22.2%; growth at 0.1 µM (SN12C): 46.3%; growth at 0.1 µM (NCI-H226): 70.2%; growth at 0.1 µM (SNB-75): 70.6%; growth at 0.1 µM (SW-620): 90%; growth at 0.1 µM (SNB-19): 65.3%; growth at 0.1 µM (MOLT-4): 41.8%; growth at 0.1 µM (KM12): 44.9%; growth at 0.1 µM (HL-60): 49.8%; growth at 0.1 µM (NCI/ADR-RES): 74%; growth at 0.1 µM (SR): 67.9%; growth at 0.1 µM (CAKI-1): 75.3%; growth at 0.1 µM (SK-MEL-28): 106%; MIC (Aspergillus niger): 1000 µg/mL (≈ 2190 µM); growth at 0.1 µM (HT-29): 81.6%; growth at 0.1 µM [2]: 72.1%; growth at 0.1 µM (T47D): 37.5%; MIC (Aspergillus clavatus): 1000 µg/mL (≈ 2190 µM); MIC (Pseudomonas aeruginosa): 62.5 µg/mL (≈ 137 µM); growth at 0.1 µM (HCT-116): 82.4%; growth at 0.1 µM (K562): 77.2%; growth at 0.1 µM (RXF 393): 73%; growth at 0.1 µM (SF-539): 85.5%; growth at 0.1 µM (SF-295): 90.1%; growth at 0.1 µM (SK-OV-3): 96.2%; growth at 0.1 µM (OVCAR-8): 70.3%; growth at 0.1 µM (OVCAR-5): 87.5%; growth at 0.1 µM (RPMI-8226): 63.9%; growth at 0.1 µM (TK-10): 82.3%; growth at 0.1 µM (U-251): 72.8%; MIC (Staphylococcus aureus): 125 µg/mL (≈ 274 µM); growth at 0.1 µM (Malme-3M): 100%; growth at 0.1 µM (MDA-MB-468): 57.5%; MIC (Candida albicans): 250 µg/mL (≈ 549 µM); growth at 0.1 µM (HCT-15): 77.3%; growth at 0.1 µM (PC-3): 46.4%; growth at 0.1 µM [3]: 86.2%; growth inhibition (GI) [4]: 99%; MIC ([4]; Mycobacterium tuberculosis, H37Rv): 50 µg/mL (≈ 110 µM); growth at 0.1 µM (OVCAR-3): 82.2%; growth at 0.1 µM (MCF7): 62.8%; growth at 0.1 µM (LOX IMVI): 73.1%; growth at 0.1 µM (A498): 73.7%; growth at 0.1 µM (HOP-62): 81.1%

— ChEMBL document CHEMBL2331210, “New 2-benzylsulfanyl-nicotinic acid based 1,3,4-oxadiazoles: their synthesis and biological evaluation” (2013)
